Measurements reported in patent publication US8288377B2, “Inhibitors of the interaction between MDM2 and p53” (Janssen Pharmaceutica N.V., priority 2007, dated 2012).

What was measured:
p53 in A2780 cells = assay: p53 ELISA (preservation of p53 in A2780 cells); assay type: cell-based; conditions: Homo sapiens, treated with compound for 16 hours, read-out: p53-elisa LAD (lowest dose giving at least 140% of the value for p53 present in the control)
Description: The capacity of the compounds to preserve p53 in A2780 cells was measured with the p53 enzyme linked immunosorbent assay (ELISA). The p53 assay is a “sandwich” enzyme immunoassay employing two polyclonal antibodies. A polyclonal antibody, specific for the p53 protein, has been immobilized onto the surface of the plastic wells. Any p53 present in the sample to be assayed will bind to the capture antibody. The biotinylated detector polyclonal antibody also recognizes p53 protein, and will bind to any p53, which has been retained by the capture antibody. The detector antibody, in turn, is bound by horseradish peroxidase-conjugated streptavidin. The horseradish peroxidase catalyses the conversion of the chromogenic substrate o-phenylene diamine, the intensity of which is proportional to the amount of p53 protein bound to the plate. The coloured reaction product is quantified using a spectrophotometer. Quantitation is achieved by the construction of a standard curve using known concentrations of purified recombinant HIS tagged p53 protein (see example C.1).
A2780 cells (ATCC) were cultivated in RPMI 1640 supplemented with 10% fetal calf serum (FCS), 2 mM L-glutamine and gentamycin at 37° C. in a humidified incubator with 5% CO2.
A2780 cells were seeded at 20.000 cells per well in a 96 well plate, cultured for 24 hours and treated with compound for 16 hours at 37° C. in a humidified incubator. After incubation, the cells were washed once with phosphate-buffered saline and 30 μl, per well, low salt RIPA buffer (20 mM tris, pH7.0, 0.5 mM EDTA, 1% Nonidet P40, 0.5% DOC, 0.05% SDS, 1 mM PMSF, 1 μg/ml aprotinin and 0.5 μ/ml leupeptin) was added. Plates were placed on ice for 30 minutes to complete the lysis. p53 protein was detected in de lysates by using the sandwich ELISA, described below.
High binding polystyrene EIA/RIA 96 well plates (Costar 9018) were coated with the capture antibody pAb1801 (Abcam ab28-100) at a concentration of 1 μg/ml in coating buffer (0.1 M NaHCO3 pH8.2), 50 μl per well. The antibody was allowed to adhere overnight at 4° C. Coated plates were washed once with phosphate-buffered saline (PBS)/0.05% Tween 20 and 300 μl of blocking buffer (PBS, 1% bovine serum albumins (BSA)) was added, for an incubation period of 2 hours at room temperature. Dilutions of purified recombinant HIS tagged p53 protein, ranging from 3-200 ng/ml, were made in blocking buffer and used as standards.
Plates were washed twice with PBS/0.05% Tween 20 and blocking buffer or standards were added at 80 μl/well. To the standards, 20 μl of lysis buffer was added. The samples were added to the other wells at 20 μl lysate/well. After an overnight incubation at 4° C., plates were washed twice with PBS/0.05% Tween 20. Aliquots of 100 μl secondary polyclonal antibody p53(FL-393) (Tebubio, sc-6243) at a concentration of 1 μg/ml in blocking buffer were added to each well and allowed to adhere for 2 hours at room temperature. Plates were washed three times with PBS/0.05% Tween 20. Detection antibody anti-rabbit HRP (sc-2004, Tebubio) at 0.04 μg/ml in PBS/1% BSA was added and incubated for 1 hour at room temperature. Plates were washed three times with PBS/0.05% Tween 20 and 100 μl of substrate buffer was added (substrate buffer was prepared shortly before use by adding 1 tablet of 10 mg o-phenylene diamine (OPD) from Sigma and 125 μl 3% H2O2 to 25 ml OPD buffer: 35 mM citric acid, 66 mM Na2HPO4, pH5.6). After 5 to 10 minutes, colour reaction was stopped by adding 50 μl stop buffer (1 M H2SO4) per well. The absorbance at dual wavelengths of 490/655 nm was measured using a Biorad micro plate reader and the results were then analyzed.
For each experiment, controls (containing no drug) and a blank incubation (containing no cells or drugs) were run in parallel. The blank value was subtracted from all control and sample values. For each sample, the value of p53 (in absorbance units) was expressed as the percentage of the value for p53 present in the control. […]

[1] = test system: A2780 ovarian cancer cells; assay: Proliferation assay (Alamar Blue); assay type: cell-based; conditions: Homo sapiens, 96 h, 4-day incubation, read-out: pIC50 (negative log value of the IC50-value) (converted)
Description: Cellular activity of the compounds of formula (I) was determined on A2780 tumour cells using a colorimetric assay for cell toxicity or survival (see example C.2).
The human A2780 ovarian cancer cells were a kind gift from Dr. T. C. Hamilton (Fox Chase Cancer Centre, Pennsylvania, U.S.A.). The cells were cultured in RPMI 1640 medium supplemented with 2 mM L-Glutamine, 50 μg/ml gentamicin and 10% fetal calf serum.
Resazurin was purchased from Aldrich (Prod. No. 199303). Potassium ferrocyanide, potassium ferricyanide, KH2PO4 and K2HPO4 were purchased from Sigma (Prod. Nos. P9387, P8131, P5655 and P8281, respectively).
Potassium Phosphate Buffer 0.1 M (PPB) was made as follows: 2.72 gram KH2PO4 and 13.86 gram K2HPO4 were dissolved in 500 ml milli-Q H2O, the pH was adjusted to pH 7.4 and the volume was brought to 1 liter with milli-Q H2O; the buffer was filter sterilised and stored at room temperature. Resazurin stock solution (PPB-A) was prepared fresh by dissolving 45 mg resazurin in 15 ml PBS. 30 mM potassium ferricyanide (PPB-B) was prepared by dissolving 0.987 gram potassium ferricyanide in 100 ml PPB. 30 mM potassium ferrocyanide (PPB-C) was prepared by dissolving 1.266 gram potassium ferrocyanide in 100 ml PPB.
Mixture of PPB-A, PPB-B and PPB-C was prepared by mixing equal volumes of the respective solutions. Resazurin work solution (herein termed “Alamar Blue” solution) was prepared by diluting said mixture 20× (vol/vol) in PPB and filter sterilising; the Alamar Blue solution could be kept at 4° C. for a maximum of 2 weeks.
For experiments in 384 wells plates the cells were seeded at a density of 5×10^3 cells/ml in Falcon 384-well culture plates (Life Technologies, Merelbeke, Belgium), black with clear bottom, in 45 μl culture medium. Cells were allowed to adhere to plastic for 24 hr. The tested compound was pre-diluted (1/50 in culture medium) and 5 μl pre-diluted compound was added to the wells. Following 4-day incubation, 10 μl of the Alamar Blue solution was added to each well and the cells were further incubated for 5 hrs (A2780) at 37° C. The fluorescence intensity was measured for each well with a Fluorescence plate reader (Fluorskan, Labsystems, 540 nm excitation and 590 nm emission)
The antiproliferative activity was calculated as percentage of remaining viable cells in treated versus control (untreated cells) conditions. Within an experiment, the result for each experimental condition is the mean of 3 replicate wells. When appropriate, the experiments were repeated to establish full concentration-response curves. When appropriate, IC50-values (concentration of the drug, needed to reduce cell growth to 50% of the control) were computed using probit analysis for graded data (Finney, D. J., Probit Analyses, 2nd Ed. Chapter 10, Graded Responses, Cambridge University Press, Cambridge 1962). Herein the effects of test compounds are expressed as pIC50 (the negative log value of the IC50-value) (see Table 4).

Compound	IC50 [1] [µM]	minimal effective concentration (p53 in A2780 cells) [µM]
CCC1(C)CN(CCc2c[nH]c3ccccc23)c2ccc(Nc3ccnc4c3CCC4O)cc2O1 (stereo not drawn) [Compound 27]	5.13	1
OC1CCc2c(Nc3ccc4c(c3)OC3(CCCC3)CN4CCc3c[nH]c4ccccc34)ccnc21 (stereo not drawn) [Compound 28]	4.9	3
OC1CCc2c(Nc3ccc4c(c3)OC3(CCCCC3)CN4CCc3c[nH]c4ccccc34)ccnc21 (stereo not drawn) [Compound 29]	~5.13	10
OC1CCc2c(Nc3ccc4c(c3)OC3(CCOCC3)CN4CCc3c[nH]c4ccccc34)ccnc21 (stereo not drawn) [Compound 30]	6.31	> 10
OC1CCc2c(Nc3ccc4c(c3)OC3(CCNCC3)CN4CCc3c[nH]c4ccccc34)ccnc21 (stereo not drawn) [Compound 31]	> 10	> 10
CC(C)N1CCC2(CC1)CN(CCc1c[nH]c3ccccc13)c1ccc(Nc3ccnc4c3CCC4O)cc1O2 (stereo not drawn) [Compound 33]	2.19	> 10
Cc1cccc2c(CCN3CC4(CCCCC4)Oc4cc(Nc5ccnc(CO)c5)ccc43)c[nH]c12 [Compound 34]	4.37	0.3
OCc1cc(Nc2ccc3c(c2)OC(c2ccoc2)CN3CCc2c[nH]c3ccccc23)ccn1 (stereo not drawn) [Compound 35]	~5.13	3
CC(C)N1CCC2(CC1)CN(CCc1c[nH]c3ccccc13)c1ccc(Nc3ccnc(CO)c3)cc1O2 [Compound 36]	3.39	> 10
Cc1cccc2c(CCN3CC(C)Oc4cc(Nc5ccnc(CO)c5)ccc43)c[nH]c12 (stereo not drawn) [Compound 37]	3.55	> 10
Cc1cccc2c(CCN3CC(C)(C)Oc4cc(Nc5ccnc(CO)c5)ccc43)c[nH]c12 [Compound 38]	3.72	> 10
OCc1cc(Nc2ccc3c(c2)OC2(CCSCC2)CN3CCc2c[nH]c3ccccc23)ccn1 [Compound 39]	~4.79	> 10
OCc1cc(Nc2ccc3c(c2)OC2(CCCC2)CN3CCc2c[nH]c3ccccc23)ccn1 [Compound 40]	~4.79	> 10
OCc1cc(Nc2ccc3c(c2)OC2(CCCCC2)CN3CCc2c[nH]c3ccccc23)ccn1 [Compound 41]	~4.79	> 10
Cc1cccc2c(CCN3CC(C)Oc4cc(Nc5ccnc6c5CCC6O)ccc43)c[nH]c12 (stereo not drawn) [Compound 42]	4.79	> 10
CN1CCC2(CC1)CN(CCc1c[nH]c3ccccc13)c1ccc(Nc3ccnc(CO)c3)cc1O2 [Compound 43]	~5.01	> 10
Cc1cccc2c(CCN3CC(C)(C)Oc4cc(Nc5ccnc6c5CCC6O)ccc43)c[nH]c12 (stereo not drawn) [Compound 44]	5.01	> 10
OCc1cc(Nc2ccc3c(c2)OC2(CCOCC2)CN3CCc2c[nH]c3ccccc23)ccn1 [Compound 45]	6.31	> 10
CCC1(C)CN(CCc2c[nH]c3ccccc23)c2ccc(Nc3ccnc(CO)c3)cc2O1 (stereo not drawn) [Compound 46]	6.92	> 10
COc1cccc2c(CCN3CCOc4cc(Nc5ccncc5)ccc43)c[nH]c12 [Compound 47]	~6.46	> 10
Cc1cccc2c(CCN3CCOc4cc(Nc5ccncc5)ccc43)c[nH]c12 [Compound 48]	3.47	> 10
c1ccc2c(CCN3CCOc4cc(Nc5ccncc5)ccc43)coc2c1 [Compound 49]	4.79	> 10
Fc1cc(Nc2ccncc2)cc2c1N(CCc1c[nH]c3ccccc13)CCO2 [Compound 50]	8.13	> 10

More lines, main results first:

IC50 [1] [µM]	Compound	minimal effective concentration (p53 in A2780 cells) [µM]
3.02	CN1CCC2(CC1)CN(CCc1c[nH]c3ccccc13)c1ccc(Nc3ccncc3)cc1O2 [Compound 51]	> 10
3.09	Cc1cccc2c(CCN3CC(C)(C)Oc4cc(Nc5ccncc5)ccc43)c[nH]c12 [Compound 52]	> 10
3.47	Cc1cccc2c(CCN3CC(C)Oc4cc(Nc5ccncc5)ccc43)coc12 (stereo not drawn) [Compound 53]	> 10
3.63	CCC1(C)CN(CCc2c[nH]c3ccccc23)c2ccc(Nc3ccncc3)cc2O1 (stereo not drawn) [Compound 54]	> 10
3.72	c1ccc2c(CCN3CC4(CCCCC4)Oc4cc(Nc5ccncc5)ccc43)c[nH]c2c1 [Compound 55]	> 10
~4.79	c1ccc2c(CCN3CC4(CCSCC4)Oc4cc(Nc5ccncc5)ccc43)c[nH]c2c1 [Compound 56]	> 10
2.45	Cc1cccc2c(CCN3CC4(CCCCC4)Oc4cc(Nc5ccncc5)ccc43)c[nH]c12 [Compound 59]	> 10
> 10	CC1Oc2cc(Nc3ccncc3)ccc2N(CCc2c[nH]c3ccccc23)C1=O (stereo not drawn) [Compound 61]	> 10
5.37	CC1(C)CN(CCc2c[nH]c3ccccc23)c2ccc(Nc3ccncc3)cc2O1 [Compound 62]	> 10
> 10	CC1(C)Oc2cc(Nc3ccncc3)ccc2N(CCc2c[nH]c3ccccc23)C1=O [Compound 63]	> 10
